Source: BindingDB's records for doi:10.7270/Q2DV1HSV (Jishou University, 2017)
pIC50: −log10 of the molar value.

target: Alpha-glucosidase MAL32 (Saccharomyces cerevisiae (strain ATCC 204508 / S288c), UniProt P38158); assay: In Vitro α-Glucosidase Inhibitory Assay; conditions: pH 6.8; 37 °C
Method: The α-glucosidase inhibition assay had been carried out using baker's yeast α-glucosidase (EC 3.2.1.20) and p-nitrophenyl α-d-glucopyranoside. The test compounds were dissolved in DMSO to prepare the required distributing concentration. α-Glucosidase inhibitory activity was assayed by using 0.1 M phosphate buffer (pH 6.8) at 37 °C. The enzyme (0.1 U/mL) in phosphate buffer saline was incubated with various concentrations of test compounds at 37 °C for 15 min. […] After further incubation at 37 °C for 30 min. […] The sample solution was replaced by DMSO as a control. Acarbose was used as a positive control. All experiments were carried out in triplicates.

Alpha-glucosidase MAL32, sequence (P38158 whole entry): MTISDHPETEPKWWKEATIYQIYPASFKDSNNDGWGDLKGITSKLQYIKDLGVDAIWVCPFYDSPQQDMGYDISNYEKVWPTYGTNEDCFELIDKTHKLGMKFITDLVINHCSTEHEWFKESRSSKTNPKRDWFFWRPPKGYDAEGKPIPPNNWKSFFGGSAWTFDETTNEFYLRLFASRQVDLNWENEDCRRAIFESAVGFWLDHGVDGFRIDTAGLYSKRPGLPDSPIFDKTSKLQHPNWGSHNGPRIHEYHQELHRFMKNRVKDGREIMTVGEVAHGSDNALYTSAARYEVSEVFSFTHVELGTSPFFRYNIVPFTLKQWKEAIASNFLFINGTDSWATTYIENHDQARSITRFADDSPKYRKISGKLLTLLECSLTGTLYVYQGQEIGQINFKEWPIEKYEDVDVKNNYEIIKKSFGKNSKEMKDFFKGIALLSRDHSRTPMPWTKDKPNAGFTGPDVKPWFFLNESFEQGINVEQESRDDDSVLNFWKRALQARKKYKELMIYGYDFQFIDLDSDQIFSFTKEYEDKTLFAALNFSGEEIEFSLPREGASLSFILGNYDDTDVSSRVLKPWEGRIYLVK

| Structure (SMILES) | pIC50 |
| --- | --- |
| CC(C)Cn1cc(C2(c3cn(CC(C)C)c4ccccc34)C(=O)Nc3ccccc32)c2ccccc21 [1,1''-Diisobutyl-[3,3':3',3''-terindolin]-2'-one (4n)] | 4.83 |
| Cn1cc(C2(c3cn(C)c4ccccc34)C(=O)Nc3ccccc32)c2ccccc21 [1,1''-Dimethyl-1H,1''H-[3,3':3',3''-terindol]-2'(1'H)-one (4e)] | 4.86 |
| O=C1Nc2ccccc2C1(c1cn(Cc2ccccc2Cl)c2ccccc12)c1cn(Cc2ccccc2Cl)c2ccccc12 [1,1''-bis(2-Chlorobenzyl)-[3,3':3',3''-terindolin]-2'-one (4i)] | 5.14 |
| O=C1Nc2ccccc2C1(c1cn(Cc2ccccc2F)c2ccccc12)c1cn(Cc2ccccc2F)c2ccccc12 [1,1''-bis(2-Fluorobenzyl)-[3,3':3',3''-terindolin]-2'-one (4j)] | 5.22 |
| O=C1Nc2ccccc2C1(c1cn(Cc2cccc(F)c2)c2ccccc12)c1cn(Cc2cccc(F)c2)c2ccccc12 [1,1''-bis(3-Fluorobenzyl)-1H,1''H-[3,3':3',3''-terindol]-2'(1'H)-one (4g)] | 5.10 |

Now from value to compound:

| pIC50 | Structure (SMILES) |
| --- | --- |
| 5.01 | O=C1Nc2ccccc2C1(c1cn(Cc2ccccc2)c2ccccc12)c1cn(Cc2ccccc2)c2ccccc12 [1,1''-Dibenzyl-1H,1''H-[3,3':3',3''-terindol]-2'(1'H)-one (4f)] |
| 4.87 | CCCCn1cc(C2(c3cn(CCCC)c4ccccc34)C(=O)Nc3ccccc32)c2ccccc21 [1,1''-Dibutyl-[3,3':3',3''-terindolin]-2'-one (4m)] |
| 4.99 | CC(C)n1cc(C2(c3cn(C(C)C)c4ccccc34)C(=O)Nc3ccccc32)c2ccccc21 [1,1''-Diisopropyl-[3,3':3',3''-terindolin]-2'-one (4l)] |
| 4.96 | CCCn1cc(C2(c3cn(CCC)c4ccccc34)C(=O)Nc3ccccc32)c2ccccc21 [1,1''-Dipropyl-[3,3':3',3''-terindolin]-2'-one (4k)] |
| 5.04 | O=C1Nc2ccccc2C1(c1cn(Cc2ccc(Br)cc2)c2ccccc12)c1cn(Cc2ccc(Br)cc2)c2ccccc12 [1,1''-bis(4-Bromobenzyl)-1H,1''H-[3,3':3',3''-terindol]-2'(1'H)-one (4h)] |
| 3.84 | O=C1Nc2ccccc2C1(c1c[nH]c2ccccc12)c1c[nH]c2ccccc12 [1H,1''H-[3,3':3',3''-terindol]-2'(1'H)-one (4a)] |
| 4.69 | O=C1Nc2ccc(Br)cc2C1(c1c[nH]c2ccccc12)c1c[nH]c2ccccc12 [5'-Bromo-1H,1''H-[3,3':3',3''-terindol]-2'(1'H)-one (4b)] |
| 4.52 | Cc1ccc2c(c1)C(c1c[nH]c3ccccc13)(c1c[nH]c3ccccc13)C(=O)N2 [5'-Methyl-1H,1''H-[3,3':3',3''-terindol]-2'(1'H)-one (4d)] |
